In patent US20030082625A1, “Method for the pretreatment of a surface for the reduction of non-specific binding by chemical entities” (priority 2001, published 2003):

What was measured:
[1] = Non-specific binding (NSB) of drugs to ultrafiltration membrane filter, regenerated cellulose (Millipore Ultrafree-MC UFC 3LGC00, 10 k NMWL); assay type: physicochemical; settings: for NSB (%) 0.5% BAK: pretreatment 0.5% benzalkonium chloride; for NSB (%) 0.5% BAK / NSB (%) 1% BAK / NSB (%) 2% BAK / NSB (%) 5% BAK: drug 10 uM; for NSB (%) 0.5% BAK / NSB (%) 1% BAK / NSB (%) 2% BAK / NSB (%) 5% BAK / NSB (%) Control / NSB (%) Tween 80 / NSB (%) BAK / NSB (%) Serum / NSB (%) 0.5% Tween / NSB (%) 1% Tween / NSB (%) 2% Tween / NSB (%) 5% Tween / NSB (%) SLS: regenerated cellulose; for NSB (%) 1% BAK: pretreatment 1% benzalkonium chloride; for NSB (%) 2% BAK: pretreatment 2% benzalkonium chloride; for NSB (%) 5% BAK: pretreatment 5% benzalkonium chloride; for NSB (%) Tween 80: pretreatment with 0.5% Tween 80; for NSB (%) BAK: pretreatment with 0.5% benzalkonium chloride; for NSB (%) RC: regenerated cellulose membrane, drug concentration 10 uM; for NSB (%) Serum: pretreatment with human serum; for NSB (%) 0.5% Tween: pretreatment 0.5% Tween 80; for NSB (%) 0.5% Tween / NSB (%) 1% Tween / NSB (%) 2% Tween / NSB (%) 5% Tween: drug 5 uM; for NSB (%) 1% Tween: pretreatment 1% Tween 80; for NSB (%) 2% Tween: pretreatment 2% Tween 80; for NSB (%) 5% Tween: pretreatment 5% Tween 80; for NSB (%) SLS: pretreatment with 0.5% sodium lauryl sulfate
Protocol: (§1) Various experiments were performed using the following reagents, surfactants and reservoirs (also comprising ultrafiltration units): human serum, pH 7.4 phosphate buffered saline (PBS), drug solution (i.e. compound) in serum at a concentration of 1-50 μM, and drug solution in PBS at a concentration of 1-50 μM were used as reagents. Surfactant solutions were 0.01-20% Tween 80 (polyoxyethylene 20 sorbitan monooleate) in PBS as neutral solution, 0.01-20% Benzalkonium chloride (BAK) in PBS as cationic solution, 0.01-20% Sodium lauryl sulfate (SLS) in PBS as anionic solution. An ultrafiltration reservoir (Millipore, Ultrafree-MC) comprising regenerated cellulose (UFC 3LGC00, 10 k NMWL) or polyethersulfone (UFC 3BSC00, 10 k NMWL) was used.
(§2) The upper ultrafiltration cup was connected to the reservoir tube and 25 μL surfactant solution was added to each well. After bedewing for 5 min, the reservoir tube containing the ultrafiltration cup was centrifuged for 10 min at 3000 g and room temperature.
(§3) 200 μL of PBS was added to each ultrafiltration cup and equilibrated for 30 min. Remaining PBS was removed from the ultrafiltration cup by gentle tapping the cup. The upper ultrafiltration cup was reconnected to a new reservoir tube, and 400 μL drug solution (1-50 μM) in serum or PBS was applied and equilibrated for 1 hr at room temperature.
(§4) The ultrafiltration tube was centrifuged for 18 min at 3000 g at room temperature. 50 μL sample was taken from the receiver (filtrate) and donor (drug solution in serum or PBS) for bioanalysis. Non-specific binding was calculated as follows:
(§5) NSB=(Cf1-Cf2)/Cf1, where NSB: non specific binding to membrane filter at pH 7.4 isotonic PBS, Cf1: free drug before filtration, and Cf2: free drug in the filtrate after filtration

[2] = Non-specific binding (NSB) of drugs to ultrafiltration membrane filter, polyethersulfone (Millipore Ultrafree-MC UFC 3BSC00, 10 k NMWL); assay type: physicochemical; settings: no pretreatment, drug concentration 10 uM
Protocol: as §1, §2, §3, §4, §5

[3] = no surfactant pretreatment, drug concentration 5 uM, pH 7.4 PBS
[4] = no pretreatment, drug concentration 50 uM

SMILES | NSB (%) 0.5% BAK [1] | NSB (%) 1% BAK [1] | NSB (%) 2% BAK [1] | NSB (%) 5% BAK [1] | NSB (%) Control [1, 3] | NSB (%) Tween 80 ([1]; drug concentration 5 uM) | NSB (%) BAK ([1]; drug concentration 5 uM) | NSB (%) RC ([1]; no pretreatment) | NSB (%) PES [2] | NSB (%) Control [1, 4] | NSB (%) Serum ([1]; drug concentration 50 uM) | NSB (%) 0.5% Tween [1] | NSB (%) 1% Tween [1] | NSB (%) 2% Tween [1] | NSB (%) 5% Tween [1] | NSB (%) SLS ([1]; drug concentration 50 uM)
COc1ccc(CCN(C)CCCC(C#N)(c2ccc(OC)c(OC)c2)C(C)C)cc1OC (centres unmarked) [Verapamil] | 43% | 34% | 25% | 12% | – | – | – | – | – | – | – | – | – | – | – | –
Cc1cc(=O)n(-c2ccccc2)n1C [Antipyrine] | – | – | – | – | 10% | 0% | 0% | – | – | – | – | – | – | – | – | –
CC[C@]1(O)C[C@@H]2CN(CCc3c([nH]c4ccccc34)[C@@](C(=O)OC)(c3cc4c(cc3OC)N(C)[C@H]3[C@@](O)(C(=O)OC)[C@H](OC(C)=O)[C@]5(CC)C=CCN6CC[C@]43[C@@H]65)C2)C1 [Vinblastine] | 82% | 79% | 68% | 59% | 95% | 95.2% | 64% | 95% | 95% | – | – | – | – | – | – | –
COc1cc([C@@H]2c3cc4c(cc3[C@@H](O[C@@H]3O[C@@H]5CO[C@@H](C)O[C@H]5[C@H](O)[C@H]3O)[C@H]3COC(=O)[C@H]23)OCO4)cc(OC)c1O [Etoposide] | – | – | – | – | 91% | 23.1% | 28.3% | 91% | 93% | 91% | 93% | – | – | – | – | –
CC(C(=O)O)c1cccc(C(=O)c2ccccc2)c1 (centres unmarked) [Ketoprofen] | – | – | – | – | 34% | 4.1% | – | – | – | – | – | – | – | – | – | –
Cn1c(=O)c2[nH]cnc2n(C)c1=O [Theophylline] | – | – | – | – | 8% | 0% | 0% | – | – | – | – | – | – | – | – | –
CC(C)NCC(O)COc1cccc2ccccc12 (centres unmarked) [Propranolol] | 14% | 15% | 5% | 10% | 91% | 46.5% | 13% | 91% | 69% | 91% | 90% | 66% | 65% | 60% | 52% | 84%
C[C@]12CCC(=O)C=C1CC[C@@H]1[C@@H]2[C@@H](O)C[C@@]2(C)[C@H]1CC[C@]2(O)C(=O)CO [Hydrocortisone] | 30% | 22% | 16% | 14% | 87% | 21.1% | 25% | 87% | 71% | 87% | 84% | 52% | 35% | 33% | 30% | 62%
CC(C)Cc1ccc(C(C)C(=O)O)cc1 (centres unmarked) [Ibuprofen] | – | – | – | – | 29% | 2.3% | – | – | – | – | – | – | – | – | – | –
Cn1c(=O)c2c(ncn2C)n(C)c1=O [Caffeine] | – | – | – | – | 17% | 0% | 0% | – | – | – | – | – | – | – | – | –
